Data set [1] can be described thus: Peptide binding to LUV, PC:SM:Chol (1:1:1). Particulars: Ka, NBD-labeled compound titrated with LUV; mean±s.d. of the fitting curve, n=3. How it is done:
(§1) Lipid vesicle preparation. Large unilamellar vesicles (LUV) were prepared from egg phosphatidylcholine (PC), cholesterol (Chol) and egg yolk sphingomyelin (SM) (Sigma Chemical Co., Israel). A dried film of lipids containing a total of 2 mg of PC:SM:Chol (1:1:1) or 2 mg of PC:Chol (9:1) was suspended in PBS and vortexed for 1.5 min. The lipid suspension underwent five cycles of freezing-thawing and then extrusion through polycarbonate membranes with 1 μm and 0.1 μm diameter pores for 25 times.
(§2) Peptide binding to LUV. The degree of peptide association with lipid vesicles was measured by adding lipid vesicles to 0.1 μM fluorescently NBD-labeled peptides at room temperature. The fluorescence intensity was measured as a function of the lipid:peptide molar ratio, with excitation set at 467 nm (10-nm slit) and emission set at 530 nm (10-nm slit). To determine the extent of the lipid's contribution to any given signal, the readings after the addition of lipid vesicles were subtracted as background from the recorded fluorescence intensity. The affinity constants were then determined by steady state affinity model using non-linear least-squares (NLLSQ). The NLLSQ fitting was done using the following equation: […]
(§3) where X is the lipid concentration, Y(x) is the fluorescence emission, Fmax is the maximal difference in the emission of NBD-labeled peptide before and after the addition of lipids (it represents the maximum peptide bound to lipid), and Ka is the affinity constant.
(§4) Compound association with lipid vesicles was estimated by NBD-labeled compound titration with large unilamellar vesicles. The mole ratio between phosphatidylcholine (PC), sphingomyelin (SM), and cholesterol (Chol) is presented for each vesicle. The membrane-binding constants (Ka) were calculated from equation 2 in the Methods. Results represent the mean±s.d. of the fitting curve, n=3.

A short description of data set [2]: Peptide binding to LUV, PC:Chol (9:1). The note with it: Ka, NBD-labeled compound titrated with LUV; mean±s.d. of the fitting curve, n=3. On the procedure:
as §1, §2, §3, §4

Data set [3] in a line: Hydrophobicity by RP-HPLC. The data set is classed as physicochemical. Particulars: RP-HPLC retention time, analytical C2 column, CH3CN/H2O gradient. How it is done: Peptide synthesis, lipid moiety conjugation, and fluorescent labeling. Peptides were synthesized on Rink Amide MBHA resin by using the F-moc strategy. Several peptides contain a lysine residue at their C-terminus with an MTT side-chain protecting group (Nova-biochem AG, Switzerland) that requires a special deprotection step under mild acidic conditions (2×1 min of 5% trifluoroacetic acid (TFA) in dichloromethane (DCM) and 30 min of 1% TFA in DCM). This enables the conjugation of a lipid moiety or a fluorescent probe to the C-terminus. The chemical synthesis schemes of the following compounds 1-5 are described in FIG. 6. Conjugation of hexadecanoic (palmitic) acid (C16) or α-Tocopherol succinate (Sigma Chemical Co., Israel) to the N-terminus of selected peptides (compound 2 and compound 4, respectively) was performed using standard F-moc chemistry. Conjugation of cholesterol to the N-terminus of a peptide (compound 3) was performed by adding 10 equivalents of cholesteryl chloroformate (Alfa Aesar, USA) dissolved in DCM, together with 3 equivalents of triethyl amine to the peptides' resin. Conjugation of D-erythro-Dihydrosphingosine (D-erythro sphinganine), (Matreya, LCC, USA) to the N- or C-terminus of a peptide (compound 1) was performed as followed: first, 10 equivalents of N,N′-Disuccinimidyl carbonate (DSC) (Chem-Impex Internatinal, USA) and 20 equivalents of N,N-Diisopropylethylamine (DIEA) were added to the resin for 2 hours in dimethylformamide (DMF). Then, 2 equivalents of sphinganine and 2 equivalents of DIEA were added for overnight incubation in DMF anhydrous. The conjugation of D-erythro-Sphingosine (Matreya, LCC, USA) to the peptides (compound 5) was performed as described for compound 1. Addition of NBD-F, fluoride (4-fluoro-7-nitrobenzofurazan) (NBD) fluorescent probe (Biotium, USA) to the N- or C-terminus of selected peptides was performed in DMF for 1 hour. All peptides were cleaved from the resin by a TFA:DDW:TES (93.1:4.9:2 (v/v)) mixture, and purified by reverse-phase high-performance liquid chromatography (RP-HPLC) to >95% homogeneity. The molecular weight of the peptides was confirmed by platform LCA electrospray mass spectrometry. For hydrophobicity tests the peptides were eluted with a flow rate of 0.6 ml/min using a two-step linear gradient from CH3CN/H2O 20:80 v/v to CH3CN/H2O 95:5 v/v in 30 min and from CH3CN/H2O 95:5 v/v to CH3CN/H2O 95:5 in 10 min v/v on an analytical C2 column (7 μm particle size, pore size 100 Å) from Nucleosil.
Hydrophobicity (min): Hydrophobicity was analyzed by RP-HPLC. The retention time of each compound is presented.

Data set [4] deals with pseudotyped virus with AD8 ENV (CCR5 tropic).
The test system of data set [5] is pseudotyped virus with LAI ENV (CXCR4 tropic).
Data set [6] can be described thus: Secondary structure determination by circular dichroism. The class given is physicochemical. The note with it: percentage of α-helical structure, CD, 10 μM peptide in HEPES buffer 5 mM pH 7.4, 25° C. On the procedure:
Secondary structure determination. Circular Dichroism (CD) measurements were performed by using an AppliedPhoto physics spectropolarimeter. The spectra were scanned using a thermostatic quartz cuvette with a path length of 1 mm. Wavelength scans were performed at 25° C.; the average recording time was 15 sec, in 1-nm steps, in the wavelength range of 190-260 nm. Each peptide concentration was 10 μM in HEPES buffer (5 mM, pH 7.4).
Helicity (%): The percentage of α-helical structure was determined as described in the section of Materials and Methods.
(In general: Circular dichroism is the unequal absorption of left and right circularly polarised light.)

Data set [7] deals with Fuzeon-resistant LAI strain with V38E mutation in gp41. The data set is described as follows: Fuzeon-resistant virus infection. Particulars: mutation in the GIV sequence (V38E).
Data set [8] concerns fully infectious HIV-1 HXB2.
[9] abbreviates: fully infectious HIV-1 system (Table 2).
Setting [10] is: read-out: Virus-cell fusion IC50, TZM-bl cells infected with fully contagious HIV, mean±s.d., n=3.

Like-named read-outs stand apart in the source and are kept apart here. Starred links: 1 amine or outer side, 2 acyl side, 3 side chain; linkers in the order of their positions; H or OH if unused. Residues, ends and D or L forms follow the SMILES beside them. *: point of attachment. Cholesteryloxycarbonyl = CC(C)CCC[C@@H](C)[C@H]1CC[C@H]2[C@@H]3CC=C4C[C@@H](OC(=O)*)CC[C@]4(C)[C@H]3CC[C@]12C; X1 = Cc1c(C)c2c(c(C)c1OC(=O)CCC(=O)*)CCC(C)(CCCC(C)CCCC(C)CCCC(C)C)O2; Sphinganine = CCCCCCCCCCCCCCC[C@@H](O)[C@H](CO)N*; Palmitoyl = CCCCCCCCCCCCCCCC(=O)*; CO = O=C([*:1])[*:2] A value given as a limit tells only on which side of the number the result lay.

As for `CCCCCCCCCCCCCCC[C@@H](O)[C@H](CO)NC(=O)N[C@@H](CC(C)C)C(=O)N[C@@H](CC(C)C)C(=O)N[C@@H](CCC(N)=O)C(=O)N[C@@H](CC(C)C)C(=O)N[C@H](C(=O)N[C@H](C(=O)N[C@@H](Cc1c[nH]c2ccccc12)C(=O)NCC(=O)N[C@H](C(=O)N[C@@H](CCCCN)C(=O)N[C@@H](CCC(N)=O)C(=O)N[C@@H](CC(C)C)C(=O)N[C@@H](CCC(N)=O)C(=O)N[C@@H](C)C(=O)N[C@@H](CCCNC(=N)N)C(=O)N[C@H](C(=O)N[C@@H](CC(C)C)C(N)=O)[C@@H](C)CC)[C@@H](C)CC)C(C)C)[C@@H](C)O` [Sphinganine-N17, Sphinganine-LLQLTVWGIKQLQARIL] ({Sphinganine-CO}-LLQLTVWGIKQLQARIL-NH2), in data set [1], the “Membrane-binding constant (M^−1), PC:SM:Chol (1:1:1)” value (shortened to “Membrane-binding constant … (1:1:1)”) came to 84000 ± 14000 M⁻¹. The “Membrane-binding constant (M^−1), PC:Chol (9:1)” value in data set [2] amounted to 470000 ± 100000 M⁻¹. For the same compound, the “Hydrophobicity” value in data set [3] was 27.2 min. Also, the IC50 is 403 nM in data set [4]; 312 nM in data set [5]; 121 ± 36 nM in data set [8] (setting [9]); 121 nM in data set [8] (read-out: IC50 (inhibitory concentration at 50% infectivity), TZM-bl cells, fully contagious HXB2 HIV-1). The “Helicity (%)” value in data set [6] is listed as <10%. Also, the “Antiviral activity against V38E mutant (in words)” value in data set [7] is on record as “preserved its potent antiviral activity”. For the same compound, the “Effect on viral infectivity / fusion (in words)” value in data set [8] (at / up to 1 μM) is recorded as “completely blocks fusion”. For the same compound, in data set [8] (time of addition), the “Viral infectivity curves, compound added to target cells before the virus vs immediately after” value was “no difference”.

On to `CC[C@H](C)[C@H](NC(=O)CNC(=O)[C@H](Cc1c[nH]c2ccccc12)NC(=O)[C@@H](NC(=O)[C@@H](NC(=O)[C@H](CC(C)C)NC(=O)[C@H](CCC(N)=O)NC(=O)[C@H](CC(C)C)NC(=O)[C@H](CC(C)C)NC(=O)CCC(=O)Oc1c(C)c(C)c2c(c1C)CCC(C)(CCCC(C)CCCC(C)CCCC(C)C)O2)[C@@H](C)O)C(C)C)C(=O)N[C@@H](CCCCN)C(=O)N[C@@H](CCC(N)=O)C(=O)N[C@@H](CC(C)C)C(=O)N[C@@H](CCC(N)=O)C(=O)N[C@@H](C)C(=O)N[C@@H](CCCNC(=N)N)C(=O)N[C@H](C(=O)N[C@@H](CC(C)C)C(N)=O)[C@@H](C)CC` (stereo partly drawn) [Tocopherol-N17] (X1-LLQLTVWGIKQLQARIL-NH2), for which, in data set [3], the “Hydrophobicity” value is 28.9 min. Besides, the “Helicity (%)” value in data set [6] was <10%. The IC50 in data set [8] (setting [9]) and in data set [8] (setting [10]) was > 4000 nM each time.

As for `CC[C@H](C)[C@H](NC(=O)CNC(=O)[C@H](Cc1c[nH]c2ccccc12)NC(=O)[C@@H](NC(=O)[C@@H](NC(=O)[C@H](CC(C)C)NC(=O)[C@H](CCC(N)=O)NC(=O)[C@H](CC(C)C)NC(=O)[C@H](CC(C)C)NC(=O)O[C@H]1CC[C@@]2(C)C(=CC[C@H]3[C@@H]4CC[C@H]([C@H](C)CCCC(C)C)[C@@]4(C)CC[C@@H]32)C1)[C@@H](C)O)C(C)C)C(=O)N[C@@H](CCCCN)C(=O)N[C@@H](CCC(N)=O)C(=O)N[C@@H](CC(C)C)C(=O)N[C@@H](CCC(N)=O)C(=O)N[C@@H](C)C(=O)N[C@@H](CCCNC(=N)N)C(=O)N[C@H](C(=O)N[C@@H](CC(C)C)C(N)=O)[C@@H](C)CC` [Cholesterol-N17] (Cholesteryloxycarbonyl-LLQLTVWGIKQLQARIL-NH2), the “Hydrophobicity” value in data set [3] turned out to be 28.9 min. In addition, in data set [6], the “Helicity (%)” value is on record as <10%. In addition, the IC50 in data set [8] (setting [9]) and in data set [8] (setting [10]) was > 4000 nM each time.

For the compound `CCCCCCCCCCCCCCCC(=O)N[C@@H](CC(C)C)C(=O)N[C@@H](CC(C)C)C(=O)N[C@@H](CCC(N)=O)C(=O)N[C@@H](CC(C)C)C(=O)N[C@H](C(=O)N[C@H](C(=O)N[C@@H](Cc1c[nH]c2ccccc12)C(=O)NCC(=O)N[C@H](C(=O)N[C@@H](CCCCN)C(=O)N[C@@H](CCC(N)=O)C(=O)N[C@@H](CC(C)C)C(=O)N[C@@H](CCC(N)=O)C(=O)N[C@@H](C)C(=O)N[C@@H](CCCNC(=N)N)C(=O)N[C@H](C(=O)N[C@@H](CC(C)C)C(N)=O)[C@@H](C)CC)[C@@H](C)CC)C(C)C)[C@@H](C)O` [Palmitic acid-N17] (Palmitoyl-LLQLTVWGIKQLQARIL-NH2), the “Membrane-binding constant … (1:1:1)” value in data set [1] turned out to be 150000 ± 70000 M⁻¹. In addition, the “Membrane-binding constant (M^−1), PC:Chol (9:1)” value in data set [2] is 170000 ± 30000 M⁻¹. Besides, the “Hydrophobicity” value in data set [3] is 26.7 min. In addition, in data set [6], the “Helicity (%)” value is recorded as <10%. In addition, the IC50 in data set [8] (setting [9]) and in data set [8] (setting [10]) was > 4000 nM each time.

enfuvirtide: the “Membrane-binding constant … (1:1:1)” value in data set [1] worked out at 31000 ± 5000 M⁻¹. In addition, the “Membrane-binding constant (M^−1), PC:Chol (9:1)” value in data set [2] worked out at 64000 ± 14000 M⁻¹. For the same compound, the “Antiviral activity against V38E mutant (in words)” value in data set [7] is on record as “considerably weakened the antiviral activity”.

On to `CC[C@H](C)[C@H](NC(=O)CNC(=O)[C@H](Cc1c[nH]c2ccccc12)NC(=O)[C@@H](NC(=O)[C@@H](NC(=O)[C@H](CC(C)C)NC(=O)[C@H](CCC(N)=O)NC(=O)[C@H](CC(C)C)NC(=O)[C@@H](N)CC(C)C)[C@@H](C)O)C(C)C)C(=O)N[C@@H](CCCCN)C(=O)N[C@@H](CCC(N)=O)C(=O)N[C@@H](CC(C)C)C(=O)N[C@@H](CCC(N)=O)C(=O)N[C@@H](C)C(=O)N[C@@H](CCCNC(=N)N)C(=O)N[C@H](C(=O)N[C@@H](CC(C)C)C(N)=O)[C@@H](C)CC` [N17, LLQLTVWGIKQLQARIL] (H-LLQLTVWGIKQLQARIL-NH2; C-terminus assumed), for which the “Hydrophobicity” value in data set [3] came out at 18.2 min. In addition, the “Helicity (%)” value in data set [6] stood at 20%. Besides, the IC50 in data set [8] (setting [9]) and in data set [8] (setting [10]) was > 4000 nM throughout. Further, in data set [8] (up to 4 μM, the maximal concentration tested), the “Inhibiting viral infectivity (in words)” value is on record as “not active”.

The record behind these values is patent US20150045291A1, “LIPOPEPTIDE CONJUGATES COMPRISING SPHINGOLIPID AND HIV GP41 DERIVED PEPTIDES” (priority 2012, published 2015).
